Results reported in patent US20230348459A1, “PYRROLIDINE COMPOUND AND USE THEREOF” (SIMCERE PHARMACEUTICAL CO., LTD., priority 2020, published 2023).

Test system: MCF-7 intracranial tumor
Test: Growth inhibition in MCF-7 intracranial tumor model in mice
Conditions: 30 mg/kg PO once daily
Method: Animal information: NPG mice (female, 6-8 weeks, body weight: about 17-29 g) were purchased from Beijing Vitalstar Biotechnology Co., Ltd. The mice were fed in SPF environment and each cage position was individually ventilated.
Cell culture: The human breast cancer MCF-7 cell line was cultured in vitro in EMEM (cell culture medium) supplemented with 10% fetal bovine serum, 1% Pen Strep and 10 µg/ml recombinant human insulin in a 37° C., 5% CO2 incubator. Conventional digestion treatment with 0.25% trypsin-EDTA digestion solution was carried out twice weekly for passage. When the cell saturation was 80%-90%, and the number reached the requirement, the cells were collected and counted.
Cell inoculation: 15 µl/(containing 2 × 10^6) MCF-7 cell suspension was inoculated into the brain of mice using a stereotaxic apparatus, a micro-injection pump and a miniature handheld cranial drill, and the mice were subcutaneously inoculated with 17β-estradiol tablets three days before the cell inoculation. On day 8 after cell inoculation, the mice were randomized into groups for administration according to the body weight thereof, and the day of grouping was Day 0.
11 mice were in the vehicle group and 8 mice were in the administration group. Mice in all groups were continuously administered until the mice died, which were euthanized due to poor state or the end of the experiment.
The body weight of the mice was measured twice weekly, and the survival status of the mice was observed.
At the end of the experiment on Day 48, all mice were euthanized.

For `C[C@@H]1Cc2c([nH]c3ccccc23)[C@@H](c2ccc(N[C@H]3CCN(CCCF)C3)cn2)N1CC(F)(F)F` [Example 3, N-((S)-1-(3-fluoropropyl)pyrrolidin-3-yl)-6-((1S,3R)-3-methyl-2-(2,2,2-trifluoroethyl)-2,3,4,9-tetrahydro-1H-pyridino[3,4-b]indol-1-yl)pyridine-3-amine], the Deaths in group (until Day 48) was “No death case occurred” and the “Survival period vs solvent control or Fulvestrant” value (P < 0.01) was “significantly prolonged”.
